Experimental data as given in publication PMC8950700 (Pharmaceuticals, 2022).
Where two headings read alike, the source gives them in different places.

What was measured:
[1] = system: A/chicken/Egypt/B13825A/2017 (H5N1wild); experiment: microbe, parasite or virus in culture; format: cell-based; details: Influenza A virus
[2] = system: A/California/04/2009 (H1N1); experiment: microbe, parasite or virus in culture; format: cell-based; details: Influenza A virus
[3] = system: H5N1N295S virus; format: cell-based, influenza A virus; details: read-out: IC50 (50% Inhibitory Concentration) H5N1N295S
[4] = system: H5N1V116A virus; format: cell-based, influenza A virus; details: read-out: IC50 (50% Inhibitory Concentration) H5N1V116A
[5] = in vitro; details: dog
[6] = read-out: IC50 (50% Inhibitory Concentration) H5N1wild
[7] = H1N1, read-out: IC50 (50% Inhibitory Concentration) H1N1
[8] = H1N1, read-out: IC50 H1N1 (Figure 5)

Row | Compound | IC50 [1, 6] [µM] | IC50 ([1]; read-out: IC50 H5N1wild (Figure 5)) [µM] | IC50 [2, 7] [µM] | IC50 [2, 8] [µM] | IC50 [3] [µM] | IC50 [4] [µM] | CC50 at 72 h [5] [µM]
1 | CC(=O)OC[C@H]1O[C@@H](OCc2cn(Cc3nc4ccccc4[nH]3)nn2)[C@H](OC(C)=O)[C@@H](OC(C)=O)[C@@H]1OC(C)=O [Compound 7a, (2R,3R,4S,5R,6R)-2-((1-((1H-Benzo[d]imidazol-2-yl)methyl)-1H-1,2,3-triazol-4-yl)methoxy)-6-(acetoxymethyl)tetrahydro-2H-pyran-3,4,5-triyl Triacetate] | 325 | 325 | 84.9 | 84.9 | 283 | 48.3 | 685
2 | CC(=O)OC[C@H]1O[C@@H](OCc2cn(Cc3nc4ccccc4o3)nn2)[C@H](OC(C)=O)[C@@H](OC(C)=O)[C@@H]1OC(C)=O [Compound 7b, (2R,3R,4S,5R,6R)-2-(Acetoxymethyl)-6-((1-(benzo[d]oxazol-2-ylmethyl)-1H-1,2,3-triazol-4-yl)methoxy)tetrahydro-2H-pyran-3,4,5-triyl Triacetate] | 37 | – | 1.68 | 1.68 | 15.5 | 22.6 | 1050
3 | CC(=O)OC[C@H]1O[C@@H](OCc2cn(Cc3nc4ccccc4s3)nn2)[C@H](OC(C)=O)[C@@H](OC(C)=O)[C@@H]1OC(C)=O [Compound 7c, (2R,3R,4S,5R,6R)-2-(Acetoxymethyl)-6-((1-(benzo[d]thiazol-2-ylmethyl)-1H-1,2,3-triazol-4-yl)methoxy)tetrahydro-2H-pyran-3,4,5-triyl Triacetate] | 1.62 | – | 1.65 | 1.66 | 37.4 | 11.3 | 764
4 | CC(=O)OC[C@H]1O[C@@H](OCc2cn(Cc3nc4ccccc4[nH]3)nn2)[C@H](OC(C)=O)[C@@H](OC(C)=O)[C@H]1OC(C)=O [Compound 8a, (2R,3R,4S,5S,6R)-2-((1-((1H-Benzo[d]imidazol-2-yl)methyl)-1H-1,2,3-triazol-4-yl)methoxy)-6-(acetoxymethyl)tetrahydro-2H-pyran-3,4,5-triyl Triacetate] | 26.3 | – | 1.61 | – | 22.8 | 924 | 503
5 | CC(=O)OC[C@H]1O[C@@H](OCc2cn(Cc3nc4ccccc4s3)nn2)[C@H](OC(C)=O)[C@@H](OC(C)=O)[C@H]1OC(C)=O [Compound 8c, (2R,3S,4S,5R,6R)-2-(Acetoxymethyl)-6-((1-(benzo[d]thiazol-2-ylmethyl)-1H-1,2,3-triazol-4-yl)methoxy)tetrahydro-2H-pyran-3,4,5-triyl Triacetate] | 1.65 | – | 1.64 | 1.64 | 64.7 | 68.6 | 312
6 | CC(=O)O[C@@H]1[C@@H](OC(C)=O)[C@H](OCc2cn(Cc3nc4ccccc4o3)nn2)OC[C@H]1OC(C)=O [Compound 9b, (2R,3R,4S,5R)-2-((1-(Benzo[d]oxazol-2-ylmethyl)-1H-1,2,3-triazol-4-yl)methoxy)tetrahydro-2H-pyran-3,4,5-triyl Triacetate] | 1.67 | – | 1.68 | – | 12.3 | 56.7 | 478
